Test results taken from patent US20170333407A1, “METHOD FOR TREATING UNDERACTIVE BLADDER SYNDROME” (William Beaumont Hospital, priority 2014, published 2017).
Where “and” joins values, the source holds several entries; their conditions need not be identical. Equal values may be shown once. Entries after “also recorded” stand apart in the source; their conditions may differ.

Tested on: patients with symptoms of UAB syndrome
Assay: Treatment of patients with symptoms of UAB syndrome with cevimeline (Qmax, PVR, UAB symptom questionnaire)
Assay type: in vivo, human
Conditions: for UAB Score: five-question UAB symptom questionnaire, lower score = improvement; for UAB Score / PVR (residual urine volume in the bladder) / Qmax (maximum urine flow rate): individual patients
Excerpt: Six different patients who each suffered from one or more medical conditions and symptoms of UAB syndrome were examined. UAB symptom-related data obtained from the patients before and after treatment with cevimeline was obtained from some of the patients and is presented below in Tables I-IV. […] Quantitative measurements were made to determine maximum urine flow rate Qmax (expressed in mL/s) and residual urine volume in the bladder PVR (expressed in mL). Qualitative measurements were obtained based on the patient's perceived UAB symptoms. A lower UAB score indicates an improvement in UAB symptoms. […] 4 and 6 after one week of treatment with cevimeline. Cevimeline was administered to each patient in 30 mg doses, three times per day. […] Specifically, the volume of residual urine in the bladder of patient 6 decreased from a baseline volume of 120 mL to a treated volume of 28 mL. To assess for qualitative improvement of UAB symptoms upon administration of cevimeline, patients were surveyed using a five-question UAB symptom questionnaire. The UAB score was then tallied from the patient responses. […] 4 and 6 after a two-week treatment with cevimeline. Cevimeline was administered to each patient in 60 mg doses, three times per day.

[1] = after one week of treatment with cevimeline 30 mg tid
[2] = after two weeks of treatment with cevimeline 60 mg tid

C[C@@H]1O[C@@]2(CS1)CN1CCC2CC1 [cevimeline, (2R,5R)-2-methylspiro[1,3-oxathiolane-5,3′-1-azabicyclo[2.2.2]octane]]
UAB Score [1]: 12 and 9 (2×) | PVR (residual urine volume in the bladder) [1]: 28 mL and 240 mL | Qmax (maximum urine flow rate) [1]: 2.9 mL/s and 3 mL/s | improvement in UAB symptoms (in words) (after one week, 30 mg three times per day, patient 4 and patient 6): did not demonstrate any quantitative or qualitative improvement; also recorded: did show quantitative improvement | UAB Score [2]: 7 | PVR (residual urine volume in the bladder) [2]: 92 mL and 69 mL | Qmax (maximum urine flow rate) [2]: 9.5 mL/s and 9.9 mL/s | improvement of UAB syndrome-related symptoms (in words) (after two-week treatment, 60 mg three times per day, patient 4 and patient 6): demonstrated both quantitative and qualitative improvements | overall effect on symptoms related to UAB syndrome (in words) (initial data from preliminary studies): effective at treating the symptoms related to UAB syndrome
